In patent US7989451B2, “Tricyclic 1,2,4-triazine oxides and compositions for therapeutic use in cancer treatments” (Auckland Uniservices Limited, priority 2005, dated 2011):
Structures can show the parent of a compound that is named as a salt. Where two headings read alike, the source gives them in different places.

Key:
[1] = tested on: human cervical carcinoma SiHa; test: Proliferation assay (IC50) under aerobic and hypoxic conditions, SiHa; type: cell-based; details: for IC50: 4 h drug exposure, sulforhodamine B; for HCR: hypoxic cytotoxicity ratio = IC50 aerobic/IC50 hypoxic
Protocol: (§1) Compounds representative of the invention were evaluated under both aerobic and hypoxic conditions in a proliferation assay (IC50), using two cell lines: human colon carcinoma HT29, and human cervical carcinoma SiHa (Table 1).
(§2) Drug exposures were performed in 96-well plates (Nunc) either using a 37 DC humidified incubator (20% O2, 5% CO2) or in the incubator compartment (37° C.) of an anaerobic chamber (Shell Lab) where palladium catalyst scrubbed gas (90% N2, 5% H2, 5% CO2) ensures severe anoxia (<0.001% O2). For each experiment, compounds were simultaneously tested under both oxic and hypoxic conditions and included TPZ as an internal control. An 8-methyl-5-nitroquinoline derivative, SN 24349, known to require very low oxygen concentrations for bioactivation (Siim et al., Br. J. Cancer 1994, 70, 596-603) was used to confirm that strict hypoxia was present during the experiment. […] Cell cultures were grown in αMEM (Gibco) containing 5% heat inactivated FCS and maintained in exponential growth phase. For each individual experiment an appropriate number of cells were seeded (HT29=1100; SiHa=1500) into wells in αMEM+10% FCS+10 mM added glucose+100 μM 2′-deoxycytidine (2′dCyd), and allowed to attach for 2-3 h. High glucose (final concentration 17 mM) and the presence of 2′-dCyd minimize hypoxia-induced cell cycle arrest. Cultures were then exposed to drugs, using 3-fold serial dilutions in duplicate, for a further 4 h. Subsequently cells were washed free of compound using complete media (without glucose/2′-dCyd) and allowed to grow for 5 (oxic) or 6 (anoxic) days. Plates were stained with sulforhodamine B as described previously (Wilson et al., J. Med. Chem. 1989, 32, 31-38) and IC50 values determined.
(§3) HCR=Hypoxic cytotoxicity ratio is defined as the ratio of IC50 values under aerobic and hypoxic conditions (IC50 aerobic/IC50 hypoxic).

[2] = tested on: human colon carcinoma HT29; test: Proliferation assay (IC50) under aerobic and hypoxic conditions, HT29; type: cell-based; details: for IC50: 4 h drug exposure, sulforhodamine B; for HCR: hypoxic cytotoxicity ratio = IC50 aerobic/IC50 hypoxic
Protocol: as §1, §2, §3

[3] = hypoxic (anaerobic chamber, <0.001% O2), then 6 days growth, read-out: IC50 (μM) hypoxic
[4] = oxic (20% O2), then 5 days growth, read-out: IC50 (μM) oxic
[5] = Homo sapiens, hypoxic (anaerobic chamber, <0.001% O2), then 6 days growth, read-out: IC50 (μM) hypoxic
[6] = Homo sapiens, oxic (20% O2), then 5 days growth, read-out: IC50 (μM) oxic
[7] = Homo sapiens, HT-29, hypoxic (anaerobic chamber, <0.001% O2), then 6 days growth, read-out: IC50 (μM) hypoxic
[8] = Homo sapiens, HT-29, oxic (20% O2), then 5 days growth, read-out: IC50 (μM) oxic

SMILES | melting point | IC50 [1, 3] | HCR [1] | IC50 [1, 4] | IC50 [2, 3] | HCR [2] | IC50 [2, 4] | IC50 [1, 5] | IC50 [1, 6] | IC50 [2, 7] | IC50 [2, 8]
CC(C)(C)[Si](C)(C)OCC1Cc2cc3nc(N)n[n+]([O-])c3cc2C1 (centres unmarked) | 169 to 171 °C |  |  |  |  |  |  |  |  |  | 
CCc1nc2cc3c(cc2[n+]([O-])n1)CC(CO[Si](C)(C)C(C)(C)C)C3 (centres unmarked) | 63 to 65 °C |  |  |  |  |  |  |  |  |  | 
C=CCc1nc2cc3c(cc2[n+]([O-])n1)CC(CO[Si](C)(C)C(C)(C)C)C3 (centres unmarked) | 49 to 52 °C |  |  |  |  |  |  |  |  |  | 
[O-][n+]1nc(NCCN2CCOCC2)[n+]([O-])c2cc3c(cc21)CCC3 (as salt: hydrochloride) [Compound 45, N-[2-(4-Morpholinyl)ethyl]-7,8-dihydro-6H-indeno[5,6-e][1,2,4]triazin-3-amine 1,4-Dioxide] | 184 to 185 °C |  |  |  |  |  |  |  |  |  | 
[O-][n+]1nc(CCCN2CCOCC2)nc2cc3c(cc21)CC(CO)C3 (centres unmarked) (as salt: hydrochloride) [Compound 140, {3-[3-(4-Morpholinyl)propyl]-1-oxido-7,8-dihydro-6H-indeno[5,6-e][1,2,4]triazin-7-yl}methanol] | 210 to 212 °C |  |  |  |  |  |  |  |  |  | 
CCc1n[n+]([O-])c2cc3c(cc2[n+]1[O-])CC(CCN1CCOCC1)C3 (centres unmarked) (as salt: hydrochloride) [Compound 164, 3-Ethyl-7-[2-(4-morpholinyl)ethyl]-7,8-dihydro-6H-indeno[5,6-e][1,2,4]triazine 1,4-Dioxide] | 131 to 133 °C |  |  |  |  |  |  |  |  |  | 
[O-][n+]1nc(NCCCN2CCOCC2)[n+]([O-])c2cc3c(cc21)CCCC3 (as salt: hydrochloride) [Compound 180, N-[3-(4-Morpholinyl)propyl]-6,7,8,9-tetrahydronaphtho[2,3-e][1,2,4]triazin-3-amine 1,4-Dioxide] | 182 to 185 °C |  |  |  |  |  |  |  |  |  | 
CCN1Cc2cc3c(cc2C1)[n+]([O-])c(N)n[n+]3[O-] (as salt: hydrochloride) [Compound 250, 7-Ethyl-7,8-dihydro-6H-[1,2,4]triazino[5,6-f]isoindol-3-amine 1,4-Dioxide] | 230 °C |  |  |  |  |  |  |  |  |  | 
Nc1nc2ccc3c(c2[n+]([O-])n1)CCC3 [Compound 4, 8,9-Dihydro-7H-indeno[5,4-e][1,2,4]triazin-3-amine 1-Oxide] | 270 to 274 °C |  |  |  |  |  |  |  |  |  | 
[O-][n+]1nc(NCCCN2CCOCC2)[n+]([O-])c2ccc3c(c21)CCC3 [Compound 15, N-[3-(1-Morpholinyl)propyl]-8,9-dihydro-7H-indeno[5,4-e][1,2,4]triazin-3-amine 1,4-Dioxide] |  | 13.9 µM | 33 | 460 µM | 37.6 µM | 24 | 902 µM |  |  |  | 
CCN(CC)CCNc1n[n+]([O-])c2cc3c(cc2[n+]1[O-])CCC3 [Compound 27, N^1-(1,4-Dioxido-7,8-dihydro-6H-indeno[5,6-e][1,2,4]triazin-3-yl)-N^2,N^2-diethyl-1,2-ethanediamine] |  |  | 133 |  |  | 61 |  | 1.1 µM | 143 µM | 4.2 µM | 254 µM
COC1CCCN(CCNc2n[n+]([O-])c3cc4c(cc3[n+]2[O-])CCC4)C1 (centres unmarked) [Compound 41, N-[2-(3-Methoxy-1-piperidinyl)ethyl]-7,8-dihydro-6H-indeno[5,6-e][1,2,4]triazin-3-amine 1,4-Dioxide] |  |  | 46 ± 17 |  |  | 19 ± 0.3 |  | 46 ± 11 µM | 1750 ± 148 µM | 93 ± 11 µM | 1390 ± 349 µM
[O-][n+]1nc(NCCN2CCOCC2)[n+]([O-])c2cc3c(cc21)CCC3 [Compound 45, N-[2-(4-Morpholinyl)ethyl]-7,8-dihydro-6H-indeno[5,6-e][1,2,4]triazin-3-amine 1,4-Dioxide] |  |  | 28 ± 11 |  |  | 17 ± 6 |  | 9.9 ± 1.4 µM | 245 ± 60 µM | 19 ± 2 µM | 310 ± 109 µM
[O-][n+]1nc(NCCN2CCCOCC2)[n+]([O-])c2cc3c(cc21)CCC3 [Compound 49, N-[2-(1,4-Oxazepan-4-yl)ethyl]-7,8-dihydro-6H-indeno[5,6-e][1,2,4]triazin-3-amine 1,4-Dioxide] |  |  | 86 ± 18 |  |  | 58 ± 26 |  | 2.8 ± 1.2 µM | 217 ± 52 µM | 7.1 ± 0.6 µM | 399 ± 148 µM
N#CC1CCN(CCCNc2n[n+]([O-])c3cc4c(cc3[n+]2[O-])CCC4)C1 (centres unmarked) [Compound 57, 1-{3-[(1,4-Dioxido-7,8-dihydro-6H-indeno[5,6-e][1,2,4]triazin-3-yl)amino]propyl}-3-pyrrolidinecarbonitrile] |  |  | 22 ± 6 |  |  | 4 ± 0.1 |  | 10.4 ± 0.6 µM | 231 ± 64 µM | 22 ± 1 µM | 87 ± 3 µM
CN(C)CCCc1n[n+]([O-])c2cc3c(cc2[n+]1[O-])CCC3 [Compound 79, N-[3-(1,4-Dioxido-7,8-dihydro-6H-indeno[5,6-e][1,2,4]triazin-3-yl)propyl]-N,N-dimethylamine] |  |  | 738 ± 523 |  |  | 386 ± 213 |  | 0.32 ± 0.09 µM | 194 ± 120 µM | 0.54 ± 0.07 µM | 195 ± 99 µM
COC1CN(CCCc2n[n+]([O-])c3cc4c(cc3[n+]2[O-])CCC4)C1 [Compound 83, 3-[3-(3-Methoxy-1-azetidinyl)propyl]-7,8-dihydro-6H-indeno[5,6-e][1,2,4]triazine 1,4-Dioxide] |  |  | 640 ± 411 |  |  | 249 ± 129 |  | 0.58 ± 0.19 µM | 300 ± 162 µM | 1.3 ± 0.2 µM | 262 ± 83 µM
[O-][n+]1nc(CCCN2CCCC2)[n+]([O-])c2cc3c(cc21)CCC3 [Compound 85, 3-[3-(1-Pyrrolidinyl)propyl]-7,8-dihydro-6H-indeno[5,6-e][1,2,4]triazine 1,4-Dioxide] |  |  | 385 ± 125 |  |  | 249 ± 55 |  | 0.35 ± 0.01 µM | 133 ± 42 µM | 0.63 ± 0.05 µM | 161 ± 48 µM
[O-][n+]1nc(CCCN2CCCCC2)[n+]([O-])c2cc3c(cc21)CCC3 [Compound 87, 3-[3-(1-Piperidinyl)propyl]-7,8-dihydro-6H-indeno[5,6-e][1,2,4]triazine 1,4-Dioxide] |  |  | 1000 ± 431 |  |  | 598 ± 233 |  | 0.26 ± 0.08 µM | 219 ± 96 µM | 0.37 ± 0.05 µM | 202 ± 72 µM
CCc1n[n+]([O-])c2cc3c(cc2[n+]1[O-])CC(CCN1CCOCC1)C3 (centres unmarked) [Compound 164, 3-Ethyl-7-[2-(4-morpholinyl)ethyl]-7,8-dihydro-6H-indeno[5,6-e][1,2,4]triazine 1,4-Dioxide] |  |  | 84 |  |  | 36 ± 5 |  | 1.3 µM | 95 ± 12 µM | 3.6 ± 1.1 µM | 121 ± 21 µM
CN(C)CCNc1n[n+]([O-])c2c3c(ccc2[n+]1[O-])CCCC3 [Compound 173, N^1-(1,4-Dioxido-7,8,9,10-tetrahydronaphtho[2,1-e][1,2,4]triazin-3-yl)-N^2,N^2-dimethyl-1,2-ethanediamine] |  |  | 64 |  |  | 18 |  | 1 µM | 62 µM | 3.4 µM | 60.5 µM
[O-][n+]1nc(NCCCN2CCOCC2)[n+]([O-])c2cc3c(cc21)CCCC3 [Compound 180, N-[3-(4-Morpholinyl)propyl]-6,7,8,9-tetrahydronaphtho[2,3-e][1,2,4]triazin-3-amine 1,4-Dioxide] |  |  | 54 ± 16 |  |  | 25 ± 3 |  | 2.6 ± 0.5 µM | 127 ± 14 µM | 6.3 ± 0.8 µM | 158 ± 19 µM
CN(C)CCNc1n[n+]([O-])c2c3c(ccc2[n+]1[O-])OCCC3 [Compound 237, N^1-(1,4-Dioxido-9,10-dihydro-8H-chromeno[6,5-e][1,2,4]triazin-3-yl)-N^2,N^2-dimethyl-1,2-ethanediamine] |  |  | 66 |  |  | 14 |  | 0.67 µM | 43.8 µM | 4.1 µM | 59.1 µM
[O-][n+]1nc(NCCCN2CCOCC2)[n+]([O-])c2cc3c(cc21)OCCC3 [Compound 244, N-[3-(4-Morpholinyl)propyl]-7,8-dihydro-6H-chromeno[6,7-e][1,2,4]triazin-3-amine 1,4-Dioxide] |  |  | 41 ± 10 |  |  | 19 ± 5 |  | 3.6 ± 0.5 µM | 145 ± 29 µM | 11 ± 3 µM | 188 ± 51 µM
CCN1Cc2cc3c(cc2C1)[n+]([O-])c(N)n[n+]3[O-] [Compound 250, 7-Ethyl-7,8-dihydro-6H-[1,2,4]triazino[5,6-f]isoindol-3-amine 1,4-Dioxide] |  |  | 80 |  |  |  |  | 0.85 µM | 36 ± 32 µM | 1.5 µM | 6.2 µM
